System: non-canonical WNT signaling in monocytes/macrophages
Experiment: PBMC-derived macrophages stimulated with supernatant of hypoxic AdWIF1-transfected cardiomyocytes
Type: cell-based, rat
Description: Neonatal rat ventricular cardiomyocytes (NRVCMs) were isolated as previously described (Hagenmueller et al. 2010). After plating, NRVCMs were allowed to adhere overnight. Cardiomyocytes were cultured under hypoxic conditions (1.5% O2) for either four or 24 hours. Supernatant, RNA and proteins were harvested.
Premade WIF1 and control adenovirus was purchased from Applied Biological Materials Inc. (Richmond, Canada). Adenovirus was amplified according to the manufacturer's instructions. Cardiomyocytes were transfected according to manufacturer's instructions. WIF1 overexpression was allowed to establish for 48 hours. Transfected cardiomyocytes were than cultured under hypoxic conditions as described above (see 1.9).
Adult rats were euthanized using a high dose of pentobarbital. Blood was collected by cardiac puncture into EDTA-coated sample tubes. Mononuclear cells were separated using Histopaque 1083 (Sigma-Aldrich Chemie GmbH, Taufkirchen, Germany) according to manufacturer's instructions. Monocytes/macrophages were allowed to adhere to the cell culture dish for two hours. Non-adherent mononuclear cells were discarded. Macrophages were stimulated with supernatant of hypoxic cardiomyocytes for four hours.
Protein lysates of primary cells and heart tissue were prepared using RIPA buffer supplemented with phosphatase/proteinase inhibitors (Cell Signaling Technology, Danvers, USA). Protein concentrations were measured using BCA assay (ThermoFisher Scientific, Waltham, USA). Equal amounts of protein were separated onto four 15% SDS-PAGE gradient gels (Bio-Rad Laboratories GmbH, München, Germany) and transferred to PVDF membranes (Merck Chemicals GmbH, Darmstadt, Germany). The following primary and HPR-conjugated secondary antibodies were used: monoclonal mouse anti-Active-β-Catenin (anti ABC), clone 8E7 (Merck Millipore, Darmstadt, Germany); monoclonal rabbit anti-JNK1+JNK2+JNK3 [EP1597Y] […] Protein expression was analyzed using ImageJ. Protein bands were normalized to GAPDH (respectively actin) loading control for quantification. […]

[1] = supernatant of WIF1-overexpressing cardiomyocytes vs control cells, FIG. 6B

Substance: WIF1: cardiomyocyte-derived WIF1 in supernatant of hypoxic cardiomyocytes transfected with WIF1 adenovirus (AdWIF1)
- transcription level of pro-inflammatory cytokine IL1β [1]: reduced
- transcription level of pro-inflammatory cytokine IL6 [1]: reduced
- JNK phosphorylation in isolated monocytes/macrophages (supernatant of hypoxic WIF1-overexpressing cardiomyocytes vs control supernatant, FIG. 6A): significantly reduced
